Tested on: C57BL/6J mice
Experiment: Sub-therapeutic antibiotic treatment (STAT) in drinking water, body composition versus Control drinking water
Assay type: in vivo
Conditions: STAT penicillin versus Control drinking water
Source text: C57BL/6J (Jackson Labs, Bar Harbor Me.) mice either received no antibiotics (control) or continuous subtherapeutic antibiotic treatment (STAT) with penicillin in their drinking water. Mice were weaned at 4 weeks onto normal chow (13.2% fat, 5053 PicoLab Rodent Diet 20, LabDiet, Brentwood, Mo.) then changed to a high fat diet (45% kcal from fat, D12451, Research Diets, New Brunswick, N.J.) at 6 weeks of life. At 18 weeks of age, the three animals with weight at or closest to the median were selected as cecal content donors from each group (Control, n=7; STAT, n=8). Donor mice were humanely euthanized, and the proximal ⅓ of the cecum was aseptically removed and immediately (less than 1 minute) placed in reduced (no oxygen), sterile liquid dental transport media (Anaerobe Systems, Morgan Hill Calif.). The cecal samples in anaerobic transport media were brought into an anaerobic chamber within an hour of collection (Sheldon, Cornelius Oreg.). The three cecal samples from each group (STAT or Control) were pooled, and reduced, sterile saline was added to a final volume of 8 mL, of which 3 mL was used for microbiota transfer. To maintain viability of anaerobic organisms, vials containing the inoculum were not opened. […]
Mice were fed normal chow, then switched to high fat diet at 6 weeks of age. […] Microbiota recipient mice were given a high fat diet and monitored for 5 weeks. […]

penicillin
Body composition: changes in body composition
